From patent US20230133958A1, “COMPOUNDS USEFUL IN MODULATING EGFR AND PI3K” (Mekanistic Therapeutics LLC, priority 2021, published 2023)

Columns and labels:
Format in all cases: cell-based
[1] = tested on: SF-295; assay: NCI COMPARE panel (SRB growth inhibition), SF-295; conditions: Homo sapiens; CNS Cancer, SF-295, 48 h
Procedure: (§1) The human tumor cell lines of the cancer screening panel are grown in RPMI 1640 medium containing 5% fetal bovine serum and 2 mM L-glutamine. For a typical screening experiment, cells are inoculated into 96 well microtiter plates in 100 µL at plating densities ranging from 5,000 to 40,000 cells/well depending on the doubling time of individual cell lines. After cell inoculation, the microtiter plates are incubated at 37° C., 5% CO2, 95% air and 100% relative humidity for 24 h prior to addition of experimental drugs.
(§2) After 24 h, two plates of each cell line are fixed in situ with TCA, to represent a measurement of the cell population for each cell line at the time of drug addition (Tz). Experimental drugs are solubilized in dimethyl sulfoxide at 400-fold the desired final maximum test concentration and stored frozen prior to use. […]
(§3) Following drug addition, the plates are incubated for an additional 48 h at 37° C., 5 % CO2, 95% air, and 100% relative humidity. […] Bound stain is subsequently solubilized with 10 mM trizma base, and the absorbance is read on an automated plate reader at a wavelength of 515 nm. […] Using the seven absorbance measurements [time zero, (Tz), control growth, (C), and test growth in the presence of drug at the five concentration levels (Ti)], the percentage growth is calculated at each of the drug concentrations levels. Percentage growth inhibition is calculated as: […]

[2] = tested on: SR; assay: NCI COMPARE panel (SRB growth inhibition), SR; conditions: Homo sapiens, Leukemia, 48 h
Procedure: as §1, §2, §3

[3] = tested on: SK-MEL-2; assay: NCI COMPARE panel (SRB growth inhibition), SK-MEL-2; conditions: Homo sapiens; Melanoma, SK-MEL-2, 48 h
Procedure: as §1, §2, §3

[4] = tested on: SNB-19; assay: NCI COMPARE panel (SRB growth inhibition), SNB-19; conditions: Homo sapiens; CNS Cancer, SNB-19, 48 h
Procedure: as §1, §2, §3

[5] = tested on: KM12; assay: NCI COMPARE panel (SRB growth inhibition), KM12; conditions: Homo sapiens; Colon Cancer, KM12, 48 h
Procedure: as §1, §2, §3

[6] = tested on: LOX IMVI; assay: NCI COMPARE panel (SRB growth inhibition), LOX IMVI; conditions: Homo sapiens, Melanoma, 48 h
Procedure: as §1, §2, §3

[7] = tested on: NCI-H226; assay: NCI COMPARE panel (SRB growth inhibition), NCI-H226; conditions: Homo sapiens; Non-Small Cell Lung Cancer, NCI-H226, 48 h
Procedure: as §1, §2, §3

[8] = tested on: MDA-MB-231/ATCC; assay: NCI COMPARE panel (SRB growth inhibition), MDA-MB-231/ATCC; conditions: Homo sapiens, Breast Cancer, 48 h
Procedure: as §1, §2, §3

[9] = tested on: NCI/ADR-RES; assay: NCI COMPARE panel (SRB growth inhibition), NCI/ADR-RES; conditions: Homo sapiens, Ovarian Cancer, 48 h
Procedure: as §1, §2, §3

[10] = tested on: HS 578T; assay: NCI COMPARE panel (SRB growth inhibition), HS 578T; conditions: Homo sapiens, Breast Cancer, 48 h
Procedure: as §1, §2, §3

[11] = tested on: K-562; assay: NCI COMPARE panel (SRB growth inhibition), K-562; conditions: Homo sapiens, K562; Leukemia, K-562, 48 h
Procedure: as §1, §2, §3

| SMILES | GI50 [1] | GI50 [2] | GI50 [3] | GI50 [4] | GI50 [5] | GI50 [6] | GI50 [7] | GI50 [8] | GI50 [9] | GI50 [10] | GI50 [11] |
| --- | --- | --- | --- | --- | --- | --- | --- | --- | --- | --- | --- |
| CS(=O)(=O)Nc1cc(-c2ccc3ncnc(Nc4cccc(Cl)c4F)c3c2)cnc1Cl [Compound 6, N-[2-chloro-5-[4-(3-chloro-2-fluoro-anilino)quinazolin-6-yl]-3-pyridyl] methanesulfonamide] | 125 to 250 nM | > 250 nM | 125 to 250 nM | 125 to 250 nM | > 250 nM | 125 to 250 nM | > 250 nM | 125 to 250 nM | > 250 nM | ≤ 75 nM | > 250 nM |
| CS(=O)(=O)Nc1cc(-c2ccc3ncc(C#N)c(Nc4cccc(Cl)c4F)c3c2)cnc1Cl [Compound 10, N-[2-chloro-5-[4-(3-chloro-2-fluoro-anilino)-3-cyano-6-quinolyl]-3-pyridyl]methanesulfonamide] | 125 to 250 nM | ≤ 75 nM | ≤ 75 nM | 125 to 250 nM | > 250 nM | 75 to 125 nM | > 250 nM | > 250 nM | > 250 nM | ≤ 75 nM | 75 to 125 nM |
